Results reported in the kinase profiling compilation of Christmann-Franck et al. (2016).

How the values were obtained:
Assay in all cases: KINOMEscan competition binding
Details in all cases: compound 10.0 µM
[1] = biological target: ACVR2A (human) (UniProt P27037)
[2] = biological target: ADCK4 (human) (UniProt Q96D53)
[3] = biological target: AURKA (human) (UniProt O14965)
[4] = biological target: BTK (human) (UniProt Q06187)
[5] = biological target: CAMK2B (human) (UniProt Q13554)
[6] = biological target: CAMK2G (human) (UniProt Q13555)
[7] = biological target: CAMK4 (human) (UniProt Q16566)
[8] = biological target: CDK15 (human) (UniProt Q96Q40)
[9] = biological target: CDK4 CCND3 (human) (UniProt P11802+P30281)
[10] = biological target: CDKL3 (human) (UniProt Q8IVW4)
[11] = biological target: DAPK3 (human) (UniProt O43293)
[12] = biological target: DCLK1 (human) (UniProt O15075)
[13] = biological target: EIF2AK2 (human) (UniProt P19525)
[14] = biological target: EPHA1 (human) (UniProt P21709)
[15] = biological target: FES (human) (UniProt P07332)
[16] = biological target: FGFR2 (human) (UniProt P21802)
[17] = biological target: GAK (human) (UniProt O14976)
[18] = biological target: GRK7 (human) (UniProt Q8WTQ7)
[19] = biological target: GSK3A (human) (UniProt P49840)
[20] = biological target: JAK2 JH1 catalytic (human) (UniProt O60674)
[21] = biological target: LCK (human) (UniProt P06239)
[22] = biological target: MAP2K3 (human) (UniProt P46734)
[23] = biological target: MAP2K4 (human) (UniProt P45985)
[24] = biological target: MAP3K3 (human) (UniProt Q99759)
[25] = biological target: MAPK1 (human) (UniProt P28482)
[26] = biological target: MARK1 (human) (UniProt Q9P0L2)
[27] = biological target: MAST1 (human) (UniProt Q9Y2H9)
[28] = biological target: MINK1 (human) (UniProt Q8N4C8)
[29] = biological target: MST4 (human) (UniProt Q9P289)
[30] = biological target: MYO3B (human) (UniProt Q8WXR4)
[31] = biological target: PHKG1 (human) (UniProt Q16816)
[32] = biological target: PIK3CD (human) (UniProt O00329)
[33] = biological target: PRKAA2 (human) (UniProt P54646)
[34] = biological target: PRKX (human) (UniProt P51817)
[35] = biological target: RIOK3 (human) (UniProt O14730)
[36] = biological target: RIPK1 (human) (UniProt Q13546)
[37] = biological target: RPS6KB1 (human) (UniProt P23443)
[38] = biological target: STK17A (human) (UniProt Q9UEE5)
[39] = biological target: STK38L (human) (UniProt Q9Y2H1)
[40] = biological target: KIT (human) (UniProt P10721)

Sequence of DCLK1 (human) (O15075 whole entry, looked up): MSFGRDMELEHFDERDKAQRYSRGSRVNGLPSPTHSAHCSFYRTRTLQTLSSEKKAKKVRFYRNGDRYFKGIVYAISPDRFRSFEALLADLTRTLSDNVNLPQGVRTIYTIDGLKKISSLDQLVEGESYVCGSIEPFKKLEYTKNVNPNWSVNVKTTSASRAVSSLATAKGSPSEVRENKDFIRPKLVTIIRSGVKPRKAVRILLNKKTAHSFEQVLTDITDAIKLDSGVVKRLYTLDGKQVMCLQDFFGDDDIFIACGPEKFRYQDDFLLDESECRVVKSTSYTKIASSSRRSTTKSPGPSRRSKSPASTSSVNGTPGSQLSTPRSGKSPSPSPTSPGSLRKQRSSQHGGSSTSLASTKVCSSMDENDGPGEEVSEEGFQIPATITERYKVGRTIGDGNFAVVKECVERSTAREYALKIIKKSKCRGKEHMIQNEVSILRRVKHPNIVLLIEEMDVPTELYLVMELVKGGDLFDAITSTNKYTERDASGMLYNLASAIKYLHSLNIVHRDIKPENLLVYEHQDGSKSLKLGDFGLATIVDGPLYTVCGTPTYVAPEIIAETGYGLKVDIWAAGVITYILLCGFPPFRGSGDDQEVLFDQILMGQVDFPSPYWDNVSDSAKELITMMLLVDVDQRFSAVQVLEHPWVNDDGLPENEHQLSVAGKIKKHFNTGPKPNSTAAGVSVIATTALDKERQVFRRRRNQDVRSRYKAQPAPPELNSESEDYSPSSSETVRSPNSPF
Sequence of EIF2AK2 (human) (P19525 whole entry, looked up): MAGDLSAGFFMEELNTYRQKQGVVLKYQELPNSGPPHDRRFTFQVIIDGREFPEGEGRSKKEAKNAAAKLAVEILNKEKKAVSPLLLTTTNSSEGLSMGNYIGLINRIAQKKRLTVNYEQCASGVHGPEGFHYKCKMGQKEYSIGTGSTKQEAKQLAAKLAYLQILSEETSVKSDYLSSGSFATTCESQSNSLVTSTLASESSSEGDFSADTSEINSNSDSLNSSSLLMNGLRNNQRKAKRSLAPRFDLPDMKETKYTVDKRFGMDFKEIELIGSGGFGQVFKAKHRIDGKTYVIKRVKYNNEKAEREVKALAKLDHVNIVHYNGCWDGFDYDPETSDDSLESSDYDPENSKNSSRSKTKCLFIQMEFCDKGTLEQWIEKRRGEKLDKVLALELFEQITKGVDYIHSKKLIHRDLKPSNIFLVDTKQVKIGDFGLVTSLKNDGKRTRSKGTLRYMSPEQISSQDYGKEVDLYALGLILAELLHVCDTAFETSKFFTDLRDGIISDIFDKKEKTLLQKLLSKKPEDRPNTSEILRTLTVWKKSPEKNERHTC
Sequence of CAMK4 (human) (Q16566 whole entry, looked up): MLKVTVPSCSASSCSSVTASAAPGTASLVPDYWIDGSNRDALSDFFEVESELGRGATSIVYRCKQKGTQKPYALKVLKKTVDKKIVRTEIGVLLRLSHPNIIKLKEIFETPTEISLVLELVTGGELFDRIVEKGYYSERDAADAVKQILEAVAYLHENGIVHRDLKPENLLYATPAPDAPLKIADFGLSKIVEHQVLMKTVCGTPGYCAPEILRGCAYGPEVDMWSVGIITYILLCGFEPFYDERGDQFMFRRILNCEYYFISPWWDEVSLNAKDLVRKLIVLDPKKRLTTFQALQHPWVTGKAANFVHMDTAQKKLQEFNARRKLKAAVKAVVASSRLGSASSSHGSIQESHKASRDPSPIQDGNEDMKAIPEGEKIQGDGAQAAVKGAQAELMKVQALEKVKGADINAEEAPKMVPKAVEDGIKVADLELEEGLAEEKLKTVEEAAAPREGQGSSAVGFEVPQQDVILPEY
Sequence of EPHA1 (human) (P21709 whole entry, looked up): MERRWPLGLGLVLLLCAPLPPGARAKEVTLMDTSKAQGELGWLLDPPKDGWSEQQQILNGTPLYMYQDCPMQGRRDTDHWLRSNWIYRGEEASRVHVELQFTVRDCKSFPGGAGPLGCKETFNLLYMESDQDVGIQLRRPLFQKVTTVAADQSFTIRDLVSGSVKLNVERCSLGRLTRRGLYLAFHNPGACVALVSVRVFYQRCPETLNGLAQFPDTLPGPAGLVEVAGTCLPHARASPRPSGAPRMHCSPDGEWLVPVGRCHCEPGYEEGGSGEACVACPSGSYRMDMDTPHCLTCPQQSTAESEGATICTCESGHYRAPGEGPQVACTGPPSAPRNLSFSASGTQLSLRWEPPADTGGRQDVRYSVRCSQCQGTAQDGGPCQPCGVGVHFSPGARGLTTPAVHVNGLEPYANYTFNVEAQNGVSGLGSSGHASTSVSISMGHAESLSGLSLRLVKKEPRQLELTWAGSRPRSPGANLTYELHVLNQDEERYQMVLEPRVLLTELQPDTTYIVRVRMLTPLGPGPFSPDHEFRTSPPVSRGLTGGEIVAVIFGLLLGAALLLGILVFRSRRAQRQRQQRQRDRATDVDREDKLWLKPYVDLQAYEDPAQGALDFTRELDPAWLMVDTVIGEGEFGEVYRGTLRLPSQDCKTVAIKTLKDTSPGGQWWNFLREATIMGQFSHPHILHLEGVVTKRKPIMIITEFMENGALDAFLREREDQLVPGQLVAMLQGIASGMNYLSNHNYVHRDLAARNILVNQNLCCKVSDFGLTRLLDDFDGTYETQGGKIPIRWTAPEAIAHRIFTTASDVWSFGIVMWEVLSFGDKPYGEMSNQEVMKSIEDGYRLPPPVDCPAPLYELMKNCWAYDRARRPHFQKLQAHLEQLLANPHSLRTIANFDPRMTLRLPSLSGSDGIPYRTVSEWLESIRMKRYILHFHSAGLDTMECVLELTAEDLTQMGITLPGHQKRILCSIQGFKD
Sequence of JAK2 JH1 catalytic (human) (O60674 whole entry, looked up): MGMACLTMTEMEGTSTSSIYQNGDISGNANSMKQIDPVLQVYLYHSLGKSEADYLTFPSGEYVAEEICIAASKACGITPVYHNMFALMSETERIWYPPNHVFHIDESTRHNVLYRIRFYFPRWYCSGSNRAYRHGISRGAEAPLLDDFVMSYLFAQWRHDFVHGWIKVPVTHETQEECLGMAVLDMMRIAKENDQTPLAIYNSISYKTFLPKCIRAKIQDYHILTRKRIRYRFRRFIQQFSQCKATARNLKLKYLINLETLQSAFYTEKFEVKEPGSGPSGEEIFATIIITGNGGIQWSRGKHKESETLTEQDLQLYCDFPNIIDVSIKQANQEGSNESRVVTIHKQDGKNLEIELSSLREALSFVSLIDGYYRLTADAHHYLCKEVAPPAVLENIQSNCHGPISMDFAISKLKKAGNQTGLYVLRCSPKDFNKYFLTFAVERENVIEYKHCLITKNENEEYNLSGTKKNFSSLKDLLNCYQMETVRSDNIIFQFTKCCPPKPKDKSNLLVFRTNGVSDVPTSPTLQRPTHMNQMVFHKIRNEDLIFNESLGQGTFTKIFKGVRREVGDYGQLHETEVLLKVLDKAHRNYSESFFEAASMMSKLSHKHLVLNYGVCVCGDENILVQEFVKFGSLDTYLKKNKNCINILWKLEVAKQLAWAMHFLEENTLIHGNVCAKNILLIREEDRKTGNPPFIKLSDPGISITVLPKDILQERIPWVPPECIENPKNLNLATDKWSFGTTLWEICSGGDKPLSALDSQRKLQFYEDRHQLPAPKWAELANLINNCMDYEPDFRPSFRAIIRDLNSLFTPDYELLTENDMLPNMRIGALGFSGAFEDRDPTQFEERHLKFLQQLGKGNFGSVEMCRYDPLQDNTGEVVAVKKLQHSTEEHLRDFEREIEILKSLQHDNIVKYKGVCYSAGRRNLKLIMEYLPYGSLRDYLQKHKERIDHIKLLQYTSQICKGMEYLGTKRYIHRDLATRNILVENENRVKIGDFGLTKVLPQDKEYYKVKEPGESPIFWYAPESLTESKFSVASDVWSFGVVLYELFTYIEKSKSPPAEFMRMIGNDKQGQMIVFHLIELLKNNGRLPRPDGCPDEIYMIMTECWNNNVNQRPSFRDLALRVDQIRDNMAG
Sequence of MAP2K3 (human) (P46734 whole entry, looked up): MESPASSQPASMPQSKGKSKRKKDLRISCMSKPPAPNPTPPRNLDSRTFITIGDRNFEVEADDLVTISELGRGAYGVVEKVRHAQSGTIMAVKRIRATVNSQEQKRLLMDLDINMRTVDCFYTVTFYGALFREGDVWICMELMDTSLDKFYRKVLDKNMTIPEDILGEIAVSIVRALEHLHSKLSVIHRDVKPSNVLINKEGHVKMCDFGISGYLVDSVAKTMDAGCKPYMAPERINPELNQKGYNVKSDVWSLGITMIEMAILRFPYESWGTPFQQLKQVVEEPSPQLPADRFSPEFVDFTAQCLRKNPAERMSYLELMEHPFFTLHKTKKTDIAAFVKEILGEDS
Sequence of PRKX (human) (P51817 whole entry, looked up): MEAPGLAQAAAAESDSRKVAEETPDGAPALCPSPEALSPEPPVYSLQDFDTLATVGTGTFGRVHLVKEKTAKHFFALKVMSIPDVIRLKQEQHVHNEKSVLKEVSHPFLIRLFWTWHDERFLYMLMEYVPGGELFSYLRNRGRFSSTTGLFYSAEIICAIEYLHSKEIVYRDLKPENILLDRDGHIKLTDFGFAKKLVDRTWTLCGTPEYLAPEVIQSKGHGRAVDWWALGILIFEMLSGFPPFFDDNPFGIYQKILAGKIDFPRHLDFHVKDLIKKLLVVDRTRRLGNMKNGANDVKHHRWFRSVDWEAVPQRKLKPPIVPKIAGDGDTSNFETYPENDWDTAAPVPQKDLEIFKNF
Sequence of MAP2K4 (human) (P45985 whole entry, looked up): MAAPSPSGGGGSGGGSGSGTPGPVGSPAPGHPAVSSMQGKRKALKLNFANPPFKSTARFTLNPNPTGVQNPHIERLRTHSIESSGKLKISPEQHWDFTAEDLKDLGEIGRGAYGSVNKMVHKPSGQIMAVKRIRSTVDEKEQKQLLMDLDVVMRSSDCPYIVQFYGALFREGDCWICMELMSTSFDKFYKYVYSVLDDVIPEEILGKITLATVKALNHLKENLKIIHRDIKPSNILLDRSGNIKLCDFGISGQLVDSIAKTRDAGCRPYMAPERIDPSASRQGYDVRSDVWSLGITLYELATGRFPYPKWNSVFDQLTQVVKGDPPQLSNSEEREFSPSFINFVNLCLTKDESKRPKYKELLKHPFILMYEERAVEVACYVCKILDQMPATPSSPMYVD

Row | SMILES | kinase still bound, per cent of control [1] | kinase still bound, per cent of control [2] | kinase still bound, per cent of control [3] | kinase still bound, per cent of control [4] | kinase still bound, per cent of control [5] | kinase still bound, per cent of control [6] | kinase still bound, per cent of control [7] | kinase still bound, per cent of control [8] | kinase still bound, per cent of control [10] | kinase still bound, per cent of control [11] | kinase still bound, per cent of control [12] | kinase still bound, per cent of control [13] | kinase still bound, per cent of control [14] | kinase still bound, per cent of control [15] | kinase still bound, per cent of control [16] | kinase still bound, per cent of control [17] | kinase still bound, per cent of control [18] | kinase still bound, per cent of control [19] | kinase still bound, per cent of control [20] | kinase still bound, per cent of control [21] | other results
1 | O=C1NC(=O)/C(=C/c2ccc3nccc(-c4ccncc4)c3c2)S1 | 83% | 35% | 69% | 58% | 9.6% | 28% | 100% | 9.6% | 99% | 0.6% | 77% | 20% | 85% | 100% | 100% | 0% | 5.4% | 71% | 31% | 62% | kinase still bound, per cent of control [9]: 100%; kinase still bound, per cent of control [22]: 35%; kinase still bound, per cent of control [23]: 9.6%; kinase still bound, per cent of control [24]: 75%; kinase still bound, per cent of control [25]: 100%; kinase still bound, per cent of control [26]: 74%; kinase still bound, per cent of control [27]: 83%; kinase still bound, per cent of control [28]: 49%; kinase still bound, per cent of control [29]: 90%; kinase still bound, per cent of control [30]: 97%; kinase still bound, per cent of control [31]: 31%; kinase still bound, per cent of control [32]: 4.8%; kinase still bound, per cent of control [33]: 93%; kinase still bound, per cent of control [34]: 19%; kinase still bound, per cent of control [35]: 1.4%; kinase still bound, per cent of control [36]: 100%; kinase still bound, per cent of control [37]: 53%; kinase still bound, per cent of control [38]: 0.2%; kinase still bound, per cent of control [39]: 100%
2 | COCC(=O)NC/C=C/c1ccc2ncnc(Nc3ccc(Oc4ccc(C)nc4)c(C)c3)c2c1 | 100% | 98% | 100% | 68% | 88% | 94% | 86% | 71% | 100% | 96% | 100% | 99% | 88% | 100% | 100% | 84% | 100% | 100% | 100% | 59% | kinase still bound, per cent of control [9]: 100%; kinase still bound, per cent of control [22]: 100%; kinase still bound, per cent of control [23]: 95%; kinase still bound, per cent of control [24]: 100%; kinase still bound, per cent of control [25]: 100%; kinase still bound, per cent of control [26]: 100%; kinase still bound, per cent of control [27]: 100%; kinase still bound, per cent of control [28]: 77%; kinase still bound, per cent of control [29]: 90%; kinase still bound, per cent of control [30]: 100%; kinase still bound, per cent of control [31]: 100%; kinase still bound, per cent of control [32]: 100%; kinase still bound, per cent of control [33]: 100%; kinase still bound, per cent of control [34]: 100%; kinase still bound, per cent of control [35]: 100%; kinase still bound, per cent of control [36]: 100%; kinase still bound, per cent of control [37]: 65%; kinase still bound, per cent of control [38]: 84%; kinase still bound, per cent of control [39]: 100%
3 | COc1cc(N2CCN(C)CC2)ccc1Nc1ncc2c(n1)N(C)c1ccccc1C(=O)N2C | 100% | 100% | 100% | 100% | 100% | 31% | 100% | 100% | 100% | 100% | 0.65% | 100% | 100% | 100% | 100% | 9.8% | 100% | 100% | 100% | 100% | kinase still bound, per cent of control [40]: 100%; kinase still bound, per cent of control [22]: 100%; kinase still bound, per cent of control [23]: 100%; kinase still bound, per cent of control [24]: 100%; kinase still bound, per cent of control [25]: 100%; kinase still bound, per cent of control [26]: 100%; kinase still bound, per cent of control [27]: 100%; kinase still bound, per cent of control [28]: 100%; kinase still bound, per cent of control [29]: 100%; kinase still bound, per cent of control [30]: 100%; kinase still bound, per cent of control [31]: 100%; kinase still bound, per cent of control [32]: 33%; kinase still bound, per cent of control [33]: 100%; kinase still bound, per cent of control [34]: 100%; kinase still bound, per cent of control [35]: 100%; kinase still bound, per cent of control [36]: 100%; kinase still bound, per cent of control [38]: 100%; kinase still bound, per cent of control [39]: 100%
4 | NC(=O)Nc1cc(-c2cccc(F)c2)sc1C(=O)N[C@@H]1CCCNC1 | 2.2% | 55% | 22% | 0.2% | 19% | 24% | 0.15% | 73% | 100% | 2.9% | 2.4% | 3.4% | 1.4% | 0.65% | 11% | 2.9% | 0.15% | 100% | 0% | 0% | kinase still bound, per cent of control [9]: 92%; kinase still bound, per cent of control [22]: 10%; kinase still bound, per cent of control [23]: 2.2%; kinase still bound, per cent of control [24]: 0%; kinase still bound, per cent of control [25]: 65%; kinase still bound, per cent of control [26]: 2.6%; kinase still bound, per cent of control [27]: 4.1%; kinase still bound, per cent of control [28]: 1.6%; kinase still bound, per cent of control [29]: 0.15%; kinase still bound, per cent of control [30]: 8.2%; kinase still bound, per cent of control [31]: 0.1%; kinase still bound, per cent of control [32]: 100%; kinase still bound, per cent of control [33]: 0.35%; kinase still bound, per cent of control [34]: 0.7%; kinase still bound, per cent of control [35]: 0.4%; kinase still bound, per cent of control [36]: 100%; kinase still bound, per cent of control [37]: 6.4%; kinase still bound, per cent of control [38]: 0.55%; kinase still bound, per cent of control [39]: 0%
